Key:
[1] = tested on: excisional wound-induced hypertrophic scarring in the ears of New Zealand White rabbits; assay: Rabbit ear hypertrophic scar model; format: in vivo; conditions: POD28; for amount of type I collagen in the dermis (Western blot, densitometry) / erythema in developed scars: intradermal; for erythema in developed scars: three injections
Method: Harvested scars were processed and analyzed to determine scar elevation index (SEI), a common quantitative histological measurement used to assess scar hypertrophy (FIG. 17). […] MATERIALS AND METHODS Materials […] dihydrochloride hydrate, homoharringtonine, Ch55 and panobinostat were acquired from Fisher Scientific (Waltham, MA). AZD-7762 was acquired from Selleck Chemicals (Houston, TX). For in vitro work, emetine dihydrochloride hydrate was dissolved in sterile H2O at 50 mM. Homoharringtonine was dissolved in DMSO at 10 mg/mL. Panobinostat was dissolved in DMSO at 425 μM. […] Recombinant human TGF-β1 (Sigma-Aldrich) was dissolved in sterile H2O at 50 µg/mL. All-trans-retinoic acid (Thermo Scientific) was dissolved in DMSO at 10 mM. […] All animal experiments were approved prior to initiation by the Northwestern University Institutional Animal Care and Use Committee (IACUC). Rabbit experiments were performed in female New Zealand White rabbits (Envigo, Indianapolis, IN) of mass 2.5-3 kg. The hypertrophic scar model was performed as described in previous publications (Dolivo et al., Jia et al., 2017, Xie et al., 2020). Briefly, on each ear, six full-thickness circular excisional wounds of 7-mm diameter were created down to the perichondrium using biopsy punches, and excised tissue was removed gently using forceps. Wounds were covered with Tegaderm (3M Healthcare, St. Paul, MN) and wounds were allowed to re-epithelialize until post-operative day (POD) 12. […] Injections were performed on POD16, POD19, and POD22. On POD28, measurements of erythema were performed using a DermaLab Combo (CyberDerm, Broomall, PA) immediately prior to euthanasia and tissue harvest. Harvested scar tissues were incubated in 0.5M ammonium thiocyanate for 20 minutes, followed by mechanical separation of dermis and epidermis using a dissecting microscope. Isolated dermal tissues were minced with a razor blade, submerged in RIPA buffer, and homogenized in the presence of 2 mm zirconia beads using a MagNA Lyser (Roche, Basel, Switzerland). Alternatively, cell culture samples were detached from the culture surface by trypsinization, collected by centrifugation, and lysed in RIPA buffer. Protein concentrations of cell culture and tissue samples were determined using a DC protein assay (BioRad). Five micrograms of total protein were loaded onto polyacrylamide gels and subjected to SDS-PAGE before transfer to nitrocellulose membranes, blocking with 5% dry milk in TBS-T, and probing with target-specific primary antibodies overnight. Species-specific secondary antibody solutions were added to membranes, and chemiluminescent signal was developed with Amersham ECL Western blotting detection reagent using X-ray film. Harvested tissues were fixed in 10% neutral-buffered formalin for 24 hours before serial dehydration and embedding in paraffin. […] Slides were deparaffinized and rehydrated in xylene and serial ethanol. Tissue samples were stained with hematoxylin and eosin (H&E), Modified Masson's Trichrome stain (Scytek, Logan, UT), or picrosirius red/fast green according to standard protocols.

[2] = tested on: primary rabbit dermal fibroblasts; assay: Ch55 treatment of rabbit dermal fibroblasts (morphology, ACTA2 qRT-PCR); format: cell-based; conditions: 1,000 nM, 24 hours
Method: (§1) Cell culture Primary human neonatal foreskin fibroblasts were obtained from the Skin Biology and Diseases Resource-based Center at Northwestern University. Primary rabbit dermal fibroblasts were isolated from female New Zealand White rabbits via harvesting full-thickness skin biopsies from rabbit ears, digesting overnight in a solution of 5 mg/mL dispase, and subsequently mechanically separating dermis from epidermis. After discarding epidermal tissue, dermal tissue was minced with a razor blade, and fibroblasts were liberated through collagenase-mediated digestion for growth in culture. […] Human fibroblasts and rabbit fibroblasts were cultured on tissue culture plastic (or, for immunofluorescence experiments, on glass coverslips) in DMEM+10% FBS and were serum starved in DMEM+0.1% FBS for 24 hours prior to drug treatments. When indicated, recombinant human TGF-β 1 was included in culture medium at a concentration of 10 ng/mL. Cultures were maintained in a humidified cell culture incubator at 37° C., 5% CO2, and ambient O2. For treatment with drugs and associated vehicle controls, the fraction of DMSO in the media was always maintained at <0.1% (v/v) in order to avoid confounding effects. […]

[3] = tested on: primary human foreskin fibroblasts; conditions: second donor, 1,000 nM, 24 hours
Method: as §1

[4] = tested on: primary human foreskin fibroblasts; assay: RNA-seq expression profiling of Ch55 effects; format: cell-based; conditions: 1,000 nM Ch55, 24 hours
Description: We then used goseq (Young et al., 2010) to query the KEGG database with the […] signature and the TGF-β-antagonizing signature. Extraction of KEGG annotations and associated pathways enriched in the […] signature (FIG. 3D) tended to refer to either general categories (e.g. “proteasome,” “cell cycle,” “phagosome”) or categories relevant to other specific cell types (e.g. “Epithelial cell signaling in H. pylori infection,” “Collecting duct acid secretion,” “Axon guidance”). […] We next computed normalized gene expression values for the DEGs extracted from the TGF-β-antagonizing signature and overlaid Ch55-induced relative expression effects on potentially fibrosis-relevant pathways of interest using Pathview Web (Luo et al., 2017).
Purified RNA harvested from primary cultured human foreskin fibroblasts pooled from three donors underwent TruSeq stranded mRNA-seq library preparation at the Northwestern University NUSeq core facility, followed by paired-end sequencing on an Illumina HiSeq 4000. Raw FASTQ files were imported into Galaxy (Jalili et al., 2020). Reads were trimmed using Trimmomatic (Bolger et al., 2014) utilizing default parameters, prior to aligning to the human genome (hg38 construction) using HISAT2 (Kim et al., 2019). Reads were assigned to genomic features using featureCounts (Liao et al., 2014), and differential expression among groups was determined, and principal component analysis constructed, using DESeq2 (Love et al., 2014) with multiple comparison adjustment performed by the Benjamini-Hochberg correction (Benjamini and Hochberg, 1995). Differentially-expressed genes were defined as false discovery rate-adjusted (FDR) P<0.05. Pathway analysis on KEGG databases (Kanehisa and Goto, 2000) were performed using goseq (Young et al., 2010) and Pathview Web (Luo et al., 2017). Z-scores were calculated from normalized count values and used to construct heatmaps. FPKM values were estimated using Stringtie (Pertea et al., 2015). Raw RNA-sequence data are available through the National Center for Biotechnology Information Sequence Read Archive accession number PRJNA921850, the contents of which is incorporated by reference in its entirety.

RAR-β = target: T1, RAR-β (Homo sapiens, UniProt P10826); conditions: cited from earlier work
T1 sequence (P10826 1-455): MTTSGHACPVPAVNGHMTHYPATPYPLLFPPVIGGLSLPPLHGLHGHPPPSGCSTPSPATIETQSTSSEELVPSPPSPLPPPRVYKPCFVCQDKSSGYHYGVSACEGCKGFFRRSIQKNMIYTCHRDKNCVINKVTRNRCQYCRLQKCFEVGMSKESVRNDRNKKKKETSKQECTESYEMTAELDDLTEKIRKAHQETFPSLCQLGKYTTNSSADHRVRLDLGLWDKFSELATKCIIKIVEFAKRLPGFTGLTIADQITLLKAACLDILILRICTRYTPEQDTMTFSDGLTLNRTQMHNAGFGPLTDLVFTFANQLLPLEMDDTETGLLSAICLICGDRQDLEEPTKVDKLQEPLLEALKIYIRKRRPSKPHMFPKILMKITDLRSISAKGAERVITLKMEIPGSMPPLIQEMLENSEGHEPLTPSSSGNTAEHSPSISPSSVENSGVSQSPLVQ

CC(C)(C)c1cc(C(=O)/C=C/c2ccc(C(=O)O)cc2)cc(C(C)(C)C)c1 [Ch55]
collagen density of the scars (Masson's Trichrome, picrosirius red/fast green) ([1]; Ch55-treated wounds): possible decrease | amount of type I collagen in the dermis (Western blot, densitometry) ([1]; high dose (10 μg)): sufficient to reduce | erythema in developed scars ([1]; high dose (10 μg)): significantly decreased | amount of type I collagen in the dermis (Western blot, densitometry) ([1]; low dose (2 μg)): sufficient to reduce | erythema in developed scars ([1]; low dose (2 μg)): not statistically significant | effects on morphology and ACTA2 expression [2]: comparable effects | effects on morphology and gene expression in fibroblasts of another tissue donor [3]: comparable effects | genes known to be targets or regulators of retinoic acid signaling (RNA-seq) [4]: broad upregulation | myofibroblast marker genes (RNA-seq) [4]: significantly downregulated | LRRC15+/Lrrc15+ signature-enriched genes significantly downregulated (number of genes) ([4]; RNA-seq): 67/117 | LRRC15+/Lrrc15+ signature-enriched genes significantly downregulated (share of genes) ([4]; RNA-seq): ~57% | affinity for RAR-β (RAR-β): high affinity
